Data taken from ChEMBL document CHEMBL1201862, “PubChem BioAssay data set” (2004).
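Each compound was tested at five concentrations against cells in 96-well plates for 48 hours. The concentration for 50% growth inhibition is given as GI50.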 Active and inactive are the calls of the source. Cut-off read from the data, not from the text of the source: active = GI50 up to about 1.1 µM and inactive = higher.

Tests used:
Experiment in all cases: NCI tumour cell line growth inhibition, 48 h
RXF 393 = test system: RXF 393
MDA-MB-435 = test system: MDA-MB-435
SN12C = test system: SN12C
LOX IMVI = test system: LOX IMVI
PC-3 = test system: PC-3
CAKI-1 = test system: CAKI-1
SNB-75 = test system: SNB-75
SNB-19 = test system: SNB-19
RPMI-8226 = test system: RPMI-8226
NCI-H226 = test system: NCI-H226
MOLT-4 = test system: MOLT-4
MCF7 = test system: MCF7
HCT-15 = test system: HCT-15
MDA-N = test system: MDA-N
MDA-MB-231 = test system: MDA-MB-231
OVCAR-8 = test system: OVCAR-8
BT-549 = test system: BT-549
A498 = test system: A498
HL-60 = test system: HL-60
OVCAR-4 = test system: OVCAR-4

SMILES	GI50 (RXF 393)	GI50 (MDA-MB-435)	GI50 (SN12C)	GI50 (LOX IMVI)	GI50 (PC-3)	GI50 (CAKI-1)	GI50 (SNB-75)	GI50 (SNB-19)	GI50 (RPMI-8226)	GI50 (NCI-H226)	GI50 (MOLT-4)	GI50 (MCF7)	GI50 (HCT-15) [µM]	GI50 (MDA-N)	GI50 (MDA-MB-231)	GI50 (OVCAR-8)	GI50 (BT-549)	GI50 (A498)	GI50 (HL-60)	GI50 (OVCAR-4)
C=C(C(=O)OCC)C(=O)OCC	> 100 µM (inactive)	> 100 µM (inactive)	> 100 µM (inactive)	> 100 µM (inactive)	> 100 µM (inactive)	> 100 µM (inactive)	> 100 µM (inactive)	> 100 µM (inactive)	> 100 µM (inactive)	> 100 µM (inactive)	> 100 µM (inactive)	> 100 µM (inactive)	> 100	> 100 µM (inactive)	> 100 µM (inactive)	> 100 µM (inactive)	> 100 µM (inactive)	–	–	–
CN(C)C(=S)SCC(=O)Nc1ccccc1	> 100 µM (inactive)	> 100 µM (inactive)	> 100 µM (inactive)	> 100 µM (inactive)	–	> 100 µM (inactive)	> 100 µM (inactive)	–	94.2 µM (inactive)	> 100 µM (inactive)	> 100 µM (inactive)	> 100 µM (inactive)	> 100	> 100 µM (inactive)	> 100 µM (inactive)	> 100 µM (inactive)	> 100 µM (inactive)	> 100 µM (inactive)	> 100 µM (inactive)	> 100 µM (inactive)
Brc1ccc(/C=N/C23CC4CC(CC(C4)C2)C3)cc1	> 100 µM (inactive)	–	> 100 µM (inactive)	> 100 µM (inactive)	–	> 100 µM (inactive)	> 100 µM (inactive)	> 100 µM (inactive)	> 100 µM (inactive)	> 100 µM (inactive)	> 100 µM (inactive)	–	> 100	–	–	> 100 µM (inactive)	–	> 100 µM (inactive)	> 100 µM (inactive)	> 100 µM (inactive)
COc1cc2c(cc1OC)C1c3ccccc3CCN1CCC2.[O-][Cl+3]([O-])([O-])O (configuration not stated)	–	83.6 µM (inactive)	> 100 µM (inactive)	> 100 µM (inactive)	> 100 µM (inactive)	> 100 µM (inactive)	> 100 µM (inactive)	> 100 µM (inactive)	63.7 µM (inactive)	> 100 µM (inactive)	> 100 µM (inactive)	> 100 µM (inactive)	> 100	> 100 µM (inactive)	> 100 µM (inactive)	> 100 µM (inactive)	23.6 µM (inactive)	–	68.5 µM (inactive)	–
COc1ccc(COCC[C@H](C)OC2OC(CO)C(O)C(O)C2O)cc1 (some centres not stated)	> 100 µM (inactive)	> 100 µM (inactive)	> 100 µM (inactive)	> 100 µM (inactive)	> 100 µM (inactive)	> 100 µM (inactive)	> 100 µM (inactive)	> 100 µM (inactive)	> 100 µM (inactive)	> 100 µM (inactive)	> 100 µM (inactive)	> 100 µM (inactive)	> 100	–	> 100 µM (inactive)	> 100 µM (inactive)	> 100 µM (inactive)	> 100 µM (inactive)	> 100 µM (inactive)	> 100 µM (inactive)
CC(=O)C1=C(C)Cn2c(=O)c3ccccc3c(=O)n2C1	> 100 µM (inactive)	–	> 100 µM (inactive)	> 100 µM (inactive)	–	> 100 µM (inactive)	> 100 µM (inactive)	> 100 µM (inactive)	> 100 µM (inactive)	> 100 µM (inactive)	> 100 µM (inactive)	–	> 100	–	–	> 100 µM (inactive)	–	82 µM (inactive)	> 100 µM (inactive)	> 100 µM (inactive)
COc1ccc(/C=C/C(=O)CC(=O)/C=C/c2ccc(OC)cc2)cc1	23.8 µM (inactive)	38.6 µM (inactive)	61.5 µM (inactive)	1.4 µM (inactive)	19.9 µM (inactive)	62.4 µM (inactive)	> 100 µM (inactive)	89.9 µM (inactive)	38.1 µM (inactive)	> 100 µM (inactive)	28 µM (inactive)	64.9 µM (inactive)	42.9	20.7 µM (inactive)	51.4 µM (inactive)	21.4 µM (inactive)	–	–	25.6 µM (inactive)	–
CCc1cccc(CC)c1Nc1nc2c(s1)C(=O)c1ccccc1C2=O	24.8 µM (inactive)	17.5 µM (inactive)	15.8 µM (inactive)	18 µM (inactive)	13.3 µM (inactive)	16.4 µM (inactive)	11.8 µM (inactive)	17 µM (inactive)	24.7 µM (inactive)	–	23.2 µM (inactive)	22.4 µM (inactive)	25.7	17.5 µM (inactive)	16.5 µM (inactive)	–	–	> 10 µM (inactive)	26.4 µM (inactive)	–
